Experimental data: patent US11572590B2, “Methods for evaluating tumor cell spheroids using 3D microfluidic cell culture device” (Dana-Farber Cancer Institute, Inc., priority 2017, dated 2023)
Like-named read-outs stand apart in the source and are kept apart here.

Tests used:
Test in all cases: SelectScreen Kinase Profiling, single point inhibition and IC50 for off-target kinases
Assay type in all cases: biochemical
[1] = biological target: off-target kinases (Homo sapiens, UniProt P07949, V804M); conditions: RET V804M, mutant y, LanthaScreen Binding
off-target kinases (Homo sapiens, UniProt P07949, V804M), sequence (P07949 29-1114 V804M): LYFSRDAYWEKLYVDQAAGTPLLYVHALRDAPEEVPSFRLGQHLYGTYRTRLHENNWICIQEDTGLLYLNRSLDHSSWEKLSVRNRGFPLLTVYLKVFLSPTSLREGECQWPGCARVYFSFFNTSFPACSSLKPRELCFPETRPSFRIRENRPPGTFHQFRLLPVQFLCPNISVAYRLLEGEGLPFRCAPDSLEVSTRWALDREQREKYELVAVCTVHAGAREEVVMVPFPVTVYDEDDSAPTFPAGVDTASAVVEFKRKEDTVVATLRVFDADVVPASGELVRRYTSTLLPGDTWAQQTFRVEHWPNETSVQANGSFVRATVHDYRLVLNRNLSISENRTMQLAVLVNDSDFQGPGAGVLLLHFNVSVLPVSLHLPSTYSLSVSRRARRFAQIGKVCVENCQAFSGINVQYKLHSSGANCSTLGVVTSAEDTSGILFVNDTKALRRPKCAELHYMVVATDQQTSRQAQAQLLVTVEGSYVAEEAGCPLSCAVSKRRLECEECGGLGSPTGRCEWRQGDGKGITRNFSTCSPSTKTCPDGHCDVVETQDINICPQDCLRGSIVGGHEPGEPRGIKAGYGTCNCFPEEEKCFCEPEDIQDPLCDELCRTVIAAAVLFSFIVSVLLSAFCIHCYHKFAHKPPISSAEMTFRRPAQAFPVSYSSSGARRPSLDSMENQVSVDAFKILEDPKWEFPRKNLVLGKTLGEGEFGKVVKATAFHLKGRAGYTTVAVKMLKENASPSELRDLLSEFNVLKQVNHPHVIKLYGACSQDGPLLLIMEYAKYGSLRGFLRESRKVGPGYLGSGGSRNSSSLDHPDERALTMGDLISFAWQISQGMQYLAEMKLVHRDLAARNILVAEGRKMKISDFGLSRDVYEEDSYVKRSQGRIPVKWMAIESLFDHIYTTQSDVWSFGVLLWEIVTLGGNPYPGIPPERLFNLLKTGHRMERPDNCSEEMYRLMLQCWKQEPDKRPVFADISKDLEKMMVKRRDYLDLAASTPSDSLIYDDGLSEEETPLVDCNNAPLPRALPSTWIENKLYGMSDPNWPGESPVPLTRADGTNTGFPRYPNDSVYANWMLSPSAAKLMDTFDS

[2] = biological target: T1, off-target kinases (Homo sapiens, UniProt O14757); conditions: CHEK1 (CHK1), ATP Km app, ZLYTE
T1 sequence (O14757 1-476): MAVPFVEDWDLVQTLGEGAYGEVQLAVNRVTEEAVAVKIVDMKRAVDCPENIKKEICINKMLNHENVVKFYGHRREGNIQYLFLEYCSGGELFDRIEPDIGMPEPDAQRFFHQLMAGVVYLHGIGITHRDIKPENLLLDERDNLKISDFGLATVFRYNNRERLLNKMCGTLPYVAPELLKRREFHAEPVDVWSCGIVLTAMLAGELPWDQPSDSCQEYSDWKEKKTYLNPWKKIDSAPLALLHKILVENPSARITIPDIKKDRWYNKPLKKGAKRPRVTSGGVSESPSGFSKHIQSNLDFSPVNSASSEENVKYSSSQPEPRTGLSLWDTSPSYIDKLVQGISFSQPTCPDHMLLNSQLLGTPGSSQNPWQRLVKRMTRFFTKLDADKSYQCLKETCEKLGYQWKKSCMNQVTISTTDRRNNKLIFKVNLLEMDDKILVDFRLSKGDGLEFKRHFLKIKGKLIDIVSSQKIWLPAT

[3] = biological target: off-target kinases (Homo sapiens, UniProt Q9Y243); conditions: AKT3 (PKB gamma), ZLYTE, ATP Km app
off-target kinases (Homo sapiens, UniProt Q9Y243), sequence (Q9Y243 whole entry): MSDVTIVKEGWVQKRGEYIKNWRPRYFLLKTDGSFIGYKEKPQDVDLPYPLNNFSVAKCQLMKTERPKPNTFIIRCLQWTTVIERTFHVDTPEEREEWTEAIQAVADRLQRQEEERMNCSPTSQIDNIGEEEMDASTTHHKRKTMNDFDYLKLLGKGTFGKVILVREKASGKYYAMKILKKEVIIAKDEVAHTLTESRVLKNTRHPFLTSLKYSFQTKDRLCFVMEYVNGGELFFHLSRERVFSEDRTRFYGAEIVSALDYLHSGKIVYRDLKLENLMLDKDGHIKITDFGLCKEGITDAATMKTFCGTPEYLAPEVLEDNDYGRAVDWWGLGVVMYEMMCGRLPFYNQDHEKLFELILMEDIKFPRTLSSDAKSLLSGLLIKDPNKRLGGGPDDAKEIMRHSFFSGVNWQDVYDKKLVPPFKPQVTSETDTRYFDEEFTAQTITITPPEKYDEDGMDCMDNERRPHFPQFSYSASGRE

[4] = biological target: off-target kinases (Homo sapiens, UniProt P08581, D1228H); conditions: MET D1228H, LanthaScreen Binding
off-target kinases (Homo sapiens, UniProt P08581, D1228H), sequence (P08581 25-1390 D1228H): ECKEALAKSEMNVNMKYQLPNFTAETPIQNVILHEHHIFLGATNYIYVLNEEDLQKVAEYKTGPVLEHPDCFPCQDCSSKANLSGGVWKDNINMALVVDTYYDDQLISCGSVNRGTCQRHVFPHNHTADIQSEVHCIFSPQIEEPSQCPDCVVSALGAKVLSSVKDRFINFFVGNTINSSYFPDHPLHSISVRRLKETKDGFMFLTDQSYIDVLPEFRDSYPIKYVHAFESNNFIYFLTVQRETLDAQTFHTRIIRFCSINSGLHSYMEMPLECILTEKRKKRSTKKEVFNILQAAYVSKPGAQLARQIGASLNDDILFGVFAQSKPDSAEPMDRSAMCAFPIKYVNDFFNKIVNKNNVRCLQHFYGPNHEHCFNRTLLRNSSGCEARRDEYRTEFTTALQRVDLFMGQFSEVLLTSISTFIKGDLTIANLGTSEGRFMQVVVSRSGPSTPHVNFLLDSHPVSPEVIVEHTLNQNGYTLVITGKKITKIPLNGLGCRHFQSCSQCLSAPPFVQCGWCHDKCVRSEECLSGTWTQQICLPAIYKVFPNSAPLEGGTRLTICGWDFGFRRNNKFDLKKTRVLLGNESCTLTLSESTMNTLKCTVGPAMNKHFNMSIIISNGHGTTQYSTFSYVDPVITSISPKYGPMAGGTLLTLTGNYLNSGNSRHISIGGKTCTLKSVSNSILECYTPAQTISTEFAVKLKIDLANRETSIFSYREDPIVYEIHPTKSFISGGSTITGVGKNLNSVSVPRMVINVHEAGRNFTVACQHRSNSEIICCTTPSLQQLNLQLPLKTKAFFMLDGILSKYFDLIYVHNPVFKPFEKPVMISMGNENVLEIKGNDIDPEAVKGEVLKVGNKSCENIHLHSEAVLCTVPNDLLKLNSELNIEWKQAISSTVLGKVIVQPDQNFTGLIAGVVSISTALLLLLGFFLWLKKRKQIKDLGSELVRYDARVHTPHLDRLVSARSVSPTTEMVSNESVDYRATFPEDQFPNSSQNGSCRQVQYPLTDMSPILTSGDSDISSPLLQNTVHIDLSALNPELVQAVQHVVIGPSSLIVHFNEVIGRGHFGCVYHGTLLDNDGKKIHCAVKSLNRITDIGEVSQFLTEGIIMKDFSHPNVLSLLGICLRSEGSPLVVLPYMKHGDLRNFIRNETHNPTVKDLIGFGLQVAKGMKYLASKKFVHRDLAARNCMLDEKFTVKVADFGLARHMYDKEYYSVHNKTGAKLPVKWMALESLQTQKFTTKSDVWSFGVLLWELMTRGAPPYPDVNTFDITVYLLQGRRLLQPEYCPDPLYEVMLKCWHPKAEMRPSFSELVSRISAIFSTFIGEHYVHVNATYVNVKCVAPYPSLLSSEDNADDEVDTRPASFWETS

[5] = biological target: T2, off-target kinases (Homo sapiens, UniProt O75385); conditions: ULK1, LanthaScreen Binding
T2 sequence (O75385 1-1050): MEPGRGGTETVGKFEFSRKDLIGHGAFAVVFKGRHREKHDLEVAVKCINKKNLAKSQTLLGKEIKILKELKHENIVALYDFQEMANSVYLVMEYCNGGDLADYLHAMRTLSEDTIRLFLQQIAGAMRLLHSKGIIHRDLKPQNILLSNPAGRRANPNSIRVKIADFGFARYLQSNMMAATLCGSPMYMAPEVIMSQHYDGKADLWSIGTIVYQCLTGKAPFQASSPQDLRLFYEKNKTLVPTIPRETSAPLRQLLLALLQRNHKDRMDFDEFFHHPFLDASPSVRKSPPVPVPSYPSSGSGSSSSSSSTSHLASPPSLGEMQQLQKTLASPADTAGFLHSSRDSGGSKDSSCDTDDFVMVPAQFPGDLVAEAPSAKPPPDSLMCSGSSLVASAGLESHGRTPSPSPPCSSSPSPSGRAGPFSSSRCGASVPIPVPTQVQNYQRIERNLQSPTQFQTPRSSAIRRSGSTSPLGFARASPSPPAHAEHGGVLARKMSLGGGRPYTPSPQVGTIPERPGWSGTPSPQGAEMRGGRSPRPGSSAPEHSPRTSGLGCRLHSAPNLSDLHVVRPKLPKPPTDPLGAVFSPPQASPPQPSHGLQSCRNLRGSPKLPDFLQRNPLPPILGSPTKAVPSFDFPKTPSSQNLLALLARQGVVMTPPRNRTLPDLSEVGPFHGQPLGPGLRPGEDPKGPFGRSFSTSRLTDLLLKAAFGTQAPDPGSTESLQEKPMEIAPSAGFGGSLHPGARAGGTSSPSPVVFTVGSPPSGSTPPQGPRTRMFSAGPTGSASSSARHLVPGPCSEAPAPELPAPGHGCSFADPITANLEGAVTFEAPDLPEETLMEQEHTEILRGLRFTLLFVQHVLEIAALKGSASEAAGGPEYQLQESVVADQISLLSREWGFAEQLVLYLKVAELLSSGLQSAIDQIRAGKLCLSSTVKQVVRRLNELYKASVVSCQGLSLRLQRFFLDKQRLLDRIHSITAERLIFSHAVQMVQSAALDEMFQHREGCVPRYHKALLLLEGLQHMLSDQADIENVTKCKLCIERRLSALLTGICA

## N#Cc1cc(-c2ncnc(Nc3ccc(N4CCN(C5COC5)CC4)cc3)n2)ccc1OC1CCOCC1 [Compound 1, 5-(4-((4-(4-(oxetan-3-yl)piperazin-1-yl)phenyl)amino)-1,3,5-triazin-2-yl)-2-((tetrahydro-2H-pyran-4-yl)oxy)benzonitrile]
[1]; read-out: % Inhibition 1
  inhibition: 35%
[1]; read-out: % Inhibition 2
  inhibition: 31%
[1]; read-out: % Inhibition Avg
  inhibition: 33%
[2]; read-out: % Inhibition 1
  inhibition: 78%
[2]; read-out: % Inhibition 2
  inhibition: 78%
[2]; read-out: % Inhibition Avg
  inhibition: 78%
[3]; read-out: % Inhibition 1
  inhibition: 3%
[3]; read-out: % Inhibition 2
  inhibition: 1%
[3]; read-out: % Inhibition Avg
  inhibition: 2%
[4]; read-out: % Inhibition 1
  inhibition: 46%
[4]; read-out: % Inhibition 2
  inhibition: 48%
[4]; read-out: % Inhibition Avg
  inhibition: 47%
[5]; read-out: % Inhibition 1
  inhibition: 91%
[5]; read-out: % Inhibition 2
  inhibition: 92%
[5]; read-out: % Inhibition Avg
  inhibition: 92%
